From US20250205264A1, “METHODS OF USING AVERMECTIN COMPOSITIONS FOR THE TREATMENT OF SPASTICITY AND DOSING REGIMENS” (priority 2022, published 2025)

Tests used:
[1] = Pharmacokinetics of Ivermectin B1a in SD rat plasma after IV or oral administration; settings: 2 mg/kg, fasting, male
Experimental: Thirty-six male Sprague Dawley rats were randomly assigned into four groups, with nine male rats in each group. All animals in all groups are fasted overnight prior to the experimental date.
Blood samples were collected from 6 of 9 animals per group at 0.5, 1, 2, 3, 4, 6, 8, 24, 72, 120, 168 hours post-dose.

[2] = Excipient compatibility study at 40° C./75% RH (HPLC Assay/Related Substances); type: physicochemical; settings: for Chromatographic purity by HPLC (% area) / Total Impurities % (% adjusted area): 40° C./75% RH; for Total Impurities % (% adjusted area): excluding API impurities
Experimental: An excipient compatibility study was initiated with selected excipients ranging from oils to surfactants based on equilibrium solubility results (Table 2). […] After solutions were prepared using a hand-held homogenizer (Model IKAT10 Ultra-Turrax), each excipient sample was aliquoted in amber vials, approximately 10% water was added in each excipient aliquot, and bench scale gel stripe OET-004037 was also made and added in a separate set of aliquot samples at approximately 1:1 w/w.
All samples were stored at 40° C./75% relative humidity (RH) condition (Model: Lunaire environmental chamber) and tested by developmental reversed phase HPLC method for Assay/Related Substances at T=0, 2 weeks, and 1 month.

[3] = in Fractionated coconut oil, 10% water, T = 2 weeks
[4] = in Fractionated coconut oil, Control, T = 0
[5] = in Fractionated coconut oil, Control, T = 2 weeks
[6] = in Fractionated coconut oil, Gel Stripe (1:1 w/w), T = 2 weeks
[7] = in Labrasol ALF, 10% water, T = 1 months
[8] = in Labrasol ALF, 10% water, T = 2 weeks
[9] = in Labrasol ALF, Control, T = 0
[10] = in Labrasol ALF, Control, T = 1 months
[11] = in Labrasol ALF, Control, T = 2 weeks
[12] = in Labrasol ALF, Gel Stripe (1:1 w/w), T = 1 months
[13] = in Labrasol ALF, Gel Stripe (1:1 w/w), T = 2 weeks
[14] = in Maisine CC, 10% water, T = 1 months
[15] = in Maisine CC, 10% water, T = 2 weeks
[16] = in Maisine CC, Control, T = 1 months
[17] = in Maisine CC, Control, T = 2 weeks
[18] = in Maisine CC, Gel Stripe (1:1 w/w), T = 1 months
[19] = in Maisine CC, Gel Stripe (1:1 w/w), T = 2 weeks
[20] = in Masester E8120, 10% water, T = 1 months
[21] = in Masester E8120, 10% water, T = 2 weeks
[22] = in Masester E8120, Control, T = 0
[23] = in Masester E8120, Control, T = 1 months
[24] = in Masester E8120, Control, T = 2 weeks
[25] = in Masester E8120, Gel Stripe (1:1 w/w), T = 1 months
[26] = in Masester E8120, Gel Stripe (1:1 w/w), T = 2 weeks
[27] = in Oleic acid, 10% water, T = 2 weeks

Question: What does the source list for ivermectin?
Answer: AUC(0-t) [1]: 8259.31 ± 1032.95 ng·h/mL; AUC(0-∞) [1]: 8273.53 ng·h/mL; Cmax [1]: 1722.67 ng/mL; MRT(0-t) [1]: 10.58 h; MRT(0-∞) [1]: 10.81 h; T1/2 [1]: 14.82 ± 0.72 h; Tmax [1]: 0.50 h; chemical compatibility with the API ([2]; PEG 400 as co-solvent): poor chemical compatibility; chemical compatibility with the API ([2]; Tween 80): less stability over time; chemical compatibility with the API ([2]; Vitamin E TPGS, compared with Tween 80 and Labrasol ALF): best chemical compatibility; Chromatographic purity by HPLC (% area) [2, 3]: 97.83 % area; Total Impurities % (% adjusted area) [2, 3]: <LOQ; Chromatographic purity by HPLC (% area) [2, 4]: 95.61 % area; Total Impurities % (% adjusted area) [2, 4]: <LOQ; Chromatographic purity by HPLC (% area) [2, 5]: 97.94 % area; Total Impurities % (% adjusted area) [2, 5]: <LOQ; Chromatographic purity by HPLC (% area) [2, 6]: 94.42 % area; Total Impurities % (% adjusted area) [2, 6]: 3.28 % adjusted area; Chromatographic purity by HPLC (% area) [2, 7]: 89.91 % area; Total Impurities % (% adjusted area) [2, 7]: 8.76 % adjusted area; Chromatographic purity by HPLC (% area) [2, 8]: 93.91 % area; Total Impurities % (% adjusted area) [2, 8]: 3.46 % adjusted area; Chromatographic purity by HPLC (% area) [2, 9]: 97.74 % area; Total Impurities % (% adjusted area) [2, 9]: <LOQ; Chromatographic purity by HPLC (% area) [2, 10]: 81.35 % area; Total Impurities % (% adjusted area) [2, 10]: 20.49 % adjusted area; Chromatographic purity by HPLC (% area) [2, 11]: 89.16 % area; Total Impurities % (% adjusted area) [2, 11]: 8.67 % adjusted area; Chromatographic purity by HPLC (% area) [2, 12]: 96.49 % area; Total Impurities % (% adjusted area) [2, 12]: 1.06 % adjusted area; Chromatographic purity by HPLC (% area) [2, 13]: 97.11 % area; Total Impurities % (% adjusted area) [2, 13]: 0.30 % adjusted area; Chromatographic purity by HPLC (% area) [2, 14]: 96.83 % area; Total Impurities % (% adjusted area) [2, 14]: 0.69 % adjusted area; Chromatographic purity by HPLC (% area) [2, 15]: 95.90 % area; Total Impurities % (% adjusted area) [2, 15]: 0.45 % adjusted area; Chromatographic purity by HPLC (% area) ([2]; in Maisine CC, Control, T = 0): 97.13 % area; Total Impurities % (% adjusted area) ([2]; in Maisine CC, Control, T = 0): 0.58 % adjusted area; Chromatographic purity by HPLC (% area) [2, 16]: 96.82 % area; Total Impurities % (% adjusted area) [2, 16]: 0.71 % adjusted area; Chromatographic purity by HPLC (% area) [2, 17]: 96.00 % area; Total Impurities % (% adjusted area) [2, 17]: 0.35 % adjusted area; Chromatographic purity by HPLC (% area) [2, 18]: 96.94 % area; Total Impurities % (% adjusted area) [2, 18]: 0.58 % adjusted area; Chromatographic purity by HPLC (% area) [2, 19]: 96.15 % area; Total Impurities % (% adjusted area) [2, 19]: 0.33 % adjusted area; Chromatographic purity by HPLC (% area) [2, 20]: 91.68 % area; Total Impurities % (% adjusted area) [2, 20]: 6.60 % adjusted area; Chromatographic purity by HPLC (% area) [2, 21]: 95.11 % area; Total Impurities % (% adjusted area) [2, 21]: 2.27 % adjusted area; Chromatographic purity by HPLC (% area) [2, 22]: 97.58 % area; Total Impurities % (% adjusted area) [2, 22]: 0.17 % adjusted area; Chromatographic purity by HPLC (% area) [2, 23]: 97.06 % area; Total Impurities % (% adjusted area) [2, 23]: 0.45 % adjusted area; Chromatographic purity by HPLC (% area) [2, 24]: 96.81 % area; Total Impurities % (% adjusted area) [2, 24]: 0.58 % adjusted area; Chromatographic purity by HPLC (% area) [2, 25]: 97.31 % area; Total Impurities % (% adjusted area) [2, 25]: 0.18 % adjusted area; Chromatographic purity by HPLC (% area) [2, 26]: 97.35 % area; Total Impurities % (% adjusted area) [2, 26]: 0.11 % adjusted area; Chromatographic purity by HPLC (% area) [2, 27]: 86.02 % area; Total Impurities % (% adjusted area) [2, 27]: 9.89 % adjusted area
